In patent US7745426B2, “Compositions and methods for reducing the risk of epileptic occurrence and/or for treatment of seizure disorders” (D-Pharm Ltd., priority 2003, dated 2010):
Counter-ions that a name gives are not always drawn.

Key:
Type in all cases: in vivo
[1] = tested on: epilepsy-prone (EP) subline of BALB/c mice, PTZ-induced convulsions; assay: PTZ-induced convulsive reaction in genetically epilepsy-prone (EP) mice, compounds given i.p.; details: for anticonvulsive effect against PTZ-induced convulsive reaction (FIG. 1): 10 mg/kg i.p. 30 minutes prior to PTZ i.p., recorded 30 min
Procedure: The animal model used is epilepsy-prone (EP) subline of mice that was selectively bred from a strain of BALB/c mice (Dolina et al. in Epilepsia (1993) 43: 33-42).
EP mice were subjected to seizure induction by intraperitoneal (i.p.) injection of pentylenetetrazol (PTZ) 50-60 mg/kg dissolved in saline. The EP animals were i.p. treated with the tested compound(s) 10 to 60 minutes prior to the PTZ injection.
The tested compounds were the following: • 1) NC-001 10 mg/kg • 2) Pyridoxine hydrochloride (=Vitamin B6) 10 mg/kg • 3) GABA 10 mg/kg • 4) Separately injected Vitamin B6 and GABA, 10 mg/kg each. A group of EP animals injected with PTZ only, with no further treatment, served as a control group.
The intensity of the PTZ-induced convulsive reaction for each group was evaluated in scores according to the following scale:
(§1) Intensity of PTZ-induced Convulsive Reaction in Scores • 1. A few myoclonic jerks (less than 10) • 2. Less than 20 jerks • 3. Less than 30 jerks • 4. 30-40 jerks/jerks and jumps/short partial convulsions. • 5. Uninterrupted jerks/series of jerks and jumps/repeated partial convulsions • 5.5 Abortive generalized convulsions • 6. Single generalized convulsive attack • 7. Series of jerks, jumps & single generalized convulsive attack; single generalized convulsions with further motor excitation • 7.5 Severe prolonged generalized convulsions • 8. Repeated generalized convulsions • 9. Series of jerks/jumps & repeated convulsions • 10. Status epilepticus • 12. Lethal convulsions
In each group of EP animals, convulsive reactions were recorded during the first 30 minutes following administration of the seizure inducer.
Genetically epilepsy-prone (EP) BALB/c mice, 3-5 animals in a group, were i.p. administered with either 5 mg/kg, 7.5 mg/kg or 10 mg/kg of NC-001 thirty minutes prior to i.p. injection of PTZ (60 mg/kg). The numbers of seizures were then recorded for each animal during 30 minutes following the PTZ injection. The intensity of convulsive reaction was scored for each of the treatment groups.

[2] = tested on: epilepsy-prone (EP) mice, PTZ-induced convulsions; assay: PTZ-induced convulsive reaction in EP mice, NC-001 orally administered; details: 30 mg/kg orally 30 min prior to PTZ 50 mg/kg i.p.; four female EP mice vs eight vehicle
Text: as §1
In order to test the ability of the vitamin B6-GABA conjugated compound to cross the GI barrier, epilepsy-prone (EP) mice were orally administered with NC-001.
A group of 12 female EP mice were i.p. treated with 50 mg/kg PTZ to induce seizures. Thirty minutes prior to PTZ administration, NC-001 at the dose of 30 mg/kg was orally administered to four of the animals (=treated group), the other eight animals were treated with vehicle only and served as a control group. All twelve animals were scored, during 30 minutes following i.p. PTZ administration, for intensity of convulsive reactions (see table of convulsive reaction scores as appear above in Example 4).

[3] = tested on: audiogenic sensitive rats, sound-induced convulsions; assay: Sound-induced convulsions in audiogenic sensitive rats chronically treated with PHT with or without pyridoxine; details: 100 db sound
Text: Phenyloin (PHT) is prescribed for medication of generalized […] generalized convulsions, complex partial seizures and simple partial seizures. […] In the experiments, intensity of 100 db sound stimulation was used. […] The second group included pyridoxine-untreated rats. […] Eleven rats were used in each group.

[4] = EP mice, 10 mg/kg i.p. 30 minutes prior to PTZ, six tested mice

NCCCC(=O)O [GABA, γ-aminobutyric acid, reference compound]
anticonvulsive effect against PTZ-induced convulsive reaction (FIG. 1) ([1]; EP mice): did not show any anticonvulsive effect

Cc1ncc(COC(=O)CCCN)c(CO)c1O [NC-001, [5-Hydroxy-6-methyl-4-(hydroxymethyl)-pyrid-3-yl]methyl-4-aminobutyrate, dihydrochloride]
EP mice that exhibited generalized convulsions ([1]; 5 mg/kg i.p. 30 min prior to PTZ 60 mg/kg i.p., FIG. 2): two of the four
effect on generalized PTZ-induced convulsions ([1]; 7.5 mg/kg i.p. 30 min prior to PTZ 60 mg/kg i.p., three EP mice, numerous jerks in all, FIG. 2): prevented generalized PTZ-induced convulsions in all three treated EP mice
effect on generalized convulsive reactions ([1]; 10 mg/kg i.p. 30 min prior to PTZ 60 mg/kg i.p., single jerks in one mouse, FIG. 2): completely prevented generalized convulsive reactions
dose dependence of anti-convulsive effect ([1]; 5, 7.5, 10 mg/kg i.p., PTZ 60 mg/kg, FIG. 2): dose-dependent anti-convulsive protective effect
anticonvulsive effect against PTZ-induced convulsive reaction (FIG. 1) ([1]; EP mice): almost a complete protection against the convulsive symptoms
animals that had only few convulsive jerks [1, 4]: two
mice that did not show any convulsive reaction [1, 4]: Four out of the six
protective effect, intensity of convulsive reactions (FIG. 3) [2]: significant protective effect

O=C1NC(=O)C(c2ccccc2)(c2ccccc2)N1 [PHT, 5,5-Diphenyl-2,4-imidazolidinedione]
number of tests with sound-induced convulsive reactions ([3]; 22 tests per group, chronic PHT, days 13 and 14): 6
tests resulting in sound-induced convulsions (percent of 22 tests) ([3]; PHT 75 mg/kg then 12 x 50 mg/kg once a day, tested days 13 and 14, 11 rats per group): 27.3%

Cc1ncc(CO)c(CO)c1O.Cl [Vitamin B6, Pyridoxine hydrochloride, reference compound]
anticonvulsive effect against PTZ-induced convulsive reaction (FIG. 1) ([1]; EP mice): some protection against PTZ-induced generalized convulsions
